How the values were obtained:
[1] = Spontaneous Motor Activity; type: in vivo; conditions: 0.5 h; oral; 30 minutes period starting 30 minutes after drug treatment; reduces movements counts 50 percent of control activity in group of 4 animals; read-out: Spontaneous Motor Activity DE50
Method: (§1) The pharmacologic activity of the compounds of the invention has been assessed by the following classical tests which are known to indicate useful therapeutic activities:
Spontaneous Motor Activity (W. J. Kinnard and C. J. Carr: J. Pharmacol. Exp. Therapeutics, 121, 354-361, 1957.)
(§2) Main neuropharmacological effects of substituted benzodiazepine in oral
^e measured in 30 minutes period starting 30 minutes after drug
^(xxx) Reduces movements counts 50 percent of control activity in
group of 4 animals: 5 groups/dose.

Miorelaxation = type: in vivo; conditions: oral, reduces "falling time" 50 percent of control group in 50 percent of treated animals, read-out: Miorelaxation DE50
Method: as §1
Miorelaxation (N. W. Dunham and T. S. Miya: J. Am. Pharm. Ass., 46, No. 3, 208-209, 1957.)
as §2
^d at 120 minutes after drug treatment.
^d' at 60 minutes after drug treatment.
^(xx) Reduces "falling time" 50 percent of control group in 50 percen

Anti-pentylenetetrazol = type: in vivo; conditions: oral, 30 minutes before pentylenetetrazol treatment 130 mg/kg s.c.
Method: as §1
Anti-pentylenetetrazol (L. O. Randall, W. Schallek, G. A. Heise, E. F. Keith and R. Bagdon: J. Pharmacol. Exp. Therapeutics, 129, 163-171, 1960).
as §2
^a 30 minutes before pentylenetetrazol treatment 130 mg/kg s.c.

Analgesic = type: in vivo; conditions: oral, prolongs reaction time 50 percent of control group in 50 percent of treated animals, read-out: Analgesic DE50
Method: as §1
Analgesic (N. B. Eddy and D. Leimbach: J. Pharmacol. Exp. Therapeutics, 107, 385-393, 1953.)
as §2
^c at 240 minutes after drug treatment.
^c' at 60 minutes after drug treatment.
^(x) Prolongs reaction time 50 percent of control group in 50 percent

[2] = Toxicity test, LD50 mice p.os; conditions: mouse, in vivo, po
Excerpt: |Compound LD50 mice p. os in mg/kg

Anti-ECS = type: in vivo; conditions: oral, 60 minutes before ECS
Method: as §1
ECS (E. A. Swinyard, W. C. Brown and L. S. Goodman: J. Pharmacol. Exp. Therapeutics, 106, 319-330, 1952.)
as §2
^b 60 minutes before ECS.

[3] = 2 h, at 120 minutes after drug treatment
[4] = convulsions, read-out: Anti-pentylenetetrazol, Convulsions DE50
[5] = death, read-out: Anti-pentylenetetrazol, Death DE50
[6] = 4 h, at 240 minutes after drug treatment
[7] = convulsions, read-out: Anti-ECS, Convulsions DE50
[8] = death, read-out: Anti-ECS, Death DE50

SMILES	ED50 [1]	ED50 (Miorelaxation; [3])	ED50 (Anti-pentylenetetrazol; [4])	ED50 (Anti-pentylenetetrazol; [5])	ED50 (Analgesic; [6])	LD50 [2]	ED50 (Anti-ECS; [7])	ED50 (Anti-ECS; [8])	ED50 (Miorelaxation; 1 h, at 60 minutes after drug treatment (d'))	ED50 (Analgesic; 1 h, at 60 minutes after drug treatment (c'))
CC(C)(C)OC(=O)NCCCC(=O)OC1N=C(c2ccccc2)c2cc(Cl)ccc2NC1=O (centres unmarked) [Example 2, 7-chloro-1,3-dihydro-5-phenyl-3-(4-tertiary-butoxycarbonylamino)butyryloxy-2H-1,4-benzodiazepine-2-one]	2.6 mg/kg	16 mg/kg	14 mg/kg	7 mg/kg	42 mg/kg	> 1500 mg/kg	60 mg/kg	1 mg/kg	–	–
CC(=O)NCCCC(=O)OC1N=C(c2ccccc2Cl)c2cc(Cl)ccc2N(C)C1=O (centres unmarked) [Example 6, 3-(4-acetamido)-butyryloxy-7-chloro-5-o-chlorophenyl-1,3-dihydro-1-methyl-2H-1,4-benzodiazepine-2-one]	1.9 mg/kg	–	0.2 mg/kg	0.16 mg/kg	–	> 1000 mg/kg	5.5 mg/kg	0.032 mg/kg	2 mg/kg	19 mg/kg
CC(=O)NCC(=O)OC1N=C(c2ccccc2)c2cc(Cl)ccc2NC1=O (centres unmarked) [Example 5, 3-acetamido-acetoxy-7-chloro-1,3-dihydro-5-phenyl-2H-1,4-benzodiazepine-2-one]	0.7 mg/kg	15 mg/kg	6 mg/kg	1.5 mg/kg	34 mg/kg	1400 mg/kg	12 mg/kg	0.32 mg/kg	–	–
O=C1Nc2ccc(Cl)cc2C(c2ccccc2)=NC1O (centres unmarked) [Oxazepam, reference compound]	4.2 mg/kg	25 mg/kg	20 mg/kg	5.5 mg/kg	28 mg/kg	> 1500 mg/kg	40 mg/kg	4 mg/kg	–	–
CC(=O)NCCCC(=O)OC1N=C(c2ccccc2Cl)c2cc(Cl)ccc2NC1=O (centres unmarked) [Example 3, 3-(4-acetamido)butyryloxy-7-chloro-5-o-chlorophenyl-1,3-dihydro-2H-1,4-benzodiazepine-2-one]	0.18 mg/kg	4.2 mg/kg	2.6 mg/kg	0.15 mg/kg	42 mg/kg	1200 mg/kg	4.6 mg/kg	0.02 mg/kg	–	–
CC(=O)NCCCC(=O)OC1N=C(c2ccccc2)c2cc(Cl)ccc2N(C)C1=O (centres unmarked) [Example 4, 3-(4-acetamido)butyryloxy-7-chloro-1,3-dihydro-1-methyl-5-phenyl-2H-1,4-benzodiazepine-2-one]	1.9 mg/kg	19 mg/kg	5 mg/kg	2.2 mg/kg	30 mg/kg	1000 mg/kg	4 mg/kg	0.7 mg/kg	–	–
CC(=O)NCCCC(=O)OC1N=C(c2ccccc2)c2cc(Cl)ccc2NC1=O (centres unmarked) [Example 1, 3-(4-acetamido)butyryl-oxy-7-chloro-1,3-dihydro-5-phenyl-2H-1,4-benzodiazepine-2-one]	9 mg/kg	6.5 mg/kg	7 mg/kg	4 mg/kg	26 mg/kg	1500 mg/kg	38 mg/kg	0.22 mg/kg	–	–
